Results taken from publication PMC3299850 (2012).

Key:
[1] = test system: HP1 (TAMRA at T37) (DNA, hairpin, T37 replaced by 2'-deoxyuridine bearing TAMRA at C5) CCTGGAGAGGAAGCCAAGTGTTTTCACTTGGCTTCCTCTCCAGG; assay: fluorescence titration; conditions: 50 mM NaCl; 10 mM HEPES, 1 mM EDTA, pH 7.4, 25 °C
[2] = test system: HP1 (TAMRA at T34) (DNA, hairpin, T34 replaced by 2'-deoxyuridine bearing TAMRA at C5) CCTGGAGAGGAAGCCAAGTGTTTTCACTTGGCTTCCTCTCCAGG; assay: fluorescence titration; conditions: 50 mM NaCl; 10 mM HEPES, 1 mM EDTA, pH 7.4, 25 °C
[3] = test system: HP2 unlabeled (DNA, hairpin) GCTAGATATATAGCTTTTTAGCTATATATCTAGC; assay: competition fluorescence titration; conditions: 50 mM NaCl; 10 mM HEPES, 1 mM EDTA, pH 7.4, 25 °C; TAMRA-HP2 complex displaced

Kd [1] [nM]	Structure (SMILES)	other results
50 ± 15	CN(C)CCCNC(=O)CCNC(=O)c1cc(NC(=O)CCNC(=O)c2cc(NC(=O)c3cc(NC(=O)CCCNC(=O)c4nc(NC(=O)c5cc(NC(=O)c6nc(NC(=O)c7nccn7C)cn6C)cn5C)cn4C)cn3C)cn2C)cn1C	
140 ± 30	CN(C)CCCNC(=O)CCNC(=O)c1cc(NC(=O)c2cc(NC(=O)c3cc(NC(=O)c4cc(NC(=O)CCCNC(=O)c5nc(NC(=O)CCNC(=O)c6nc(NC(=O)c7nccn7C)cn6C)cn5C)cn4C)cn3C)cn2C)cn1C	
7.8 ± 1.6	CN(C)CCCNC(=O)CCNC(=O)c1cc(NC(=O)c2cc(NC(=O)c3nc(NC(=O)CCCNC(=O)c4cc(NC(=O)c5nc(NC(=O)c6nccn6C)cn5C)cn4C)cn3C)cn2C)cn1C	
2.3 ± 0.3	CN(C)CCCNC(=O)CCNC(=O)c1cc(NC(=O)c2cc(NC(=O)c3nc(NC(=O)c4cc(NC(=O)CCCNC(=O)c5cc(NC(=O)c6cc(NC(=O)c7nc(NC(=O)c8nccn8C)cn7C)cn6C)cn5C)cn4C)cn3C)cn2C)cn1C	
	CN(C)CCCNC(=O)CCNC(=O)c1cc(NC(=O)c2nc(NC(=O)c3nc(NC(=O)c4cc(NC(=O)CCCNC(=O)c5cc(NC(=O)c6cc(NC(=O)c7cc(NC(=O)c8nccn8C)cn7C)cn6C)cn5C)cn4C)cn3C)cn2C)cn1C	Kd [2]: 11.4 ± 1 nM
	CN(CCCN)CCCNC(=O)CCNC(=O)c1cc(NC(=O)c2cc(NC(=O)c3cc(NC(=O)c4cc(NC(=O)CCNC(=O)c5cc(NC(=O)c6cc(NC(=O)CCCNC(=O)c7cc(NC(=O)c8cc(NC(=O)c9cc(NC(=O)CCNC(=O)c%10cc(NC(=O)c%11cc(NC(=O)c%12nccn%12C)cn%11C)cn%10C)cn9C)cn8C)cn7C)cn6C)cn5C)cn4C)cn3C)cn2C)cn1C	Kd [3]: 1.8 nM
